The assay concerns CD2F1 mice, P388/ADR leukemia ip, median survival T/C. Kind of assay: NCI In Vivo Anticancer Drug Screen. Data for tumor model P388 Leukemia resistant to Adriamycin; NSC 123127, Developed at Scr 08 (intraperitoneal) in CD2F1 (CDF1) mice. To be noted: endpoint: median survival time, higher = longer survival. The protocol:
The antitumor activity of compounds was measured in mice bearing transplantable tumors. Survival or tumor size were measured and the results are expressed as the measurement made in the treated group (T) divided by the measurement made in the vehicle treated control group (C). The tumor model used in this assay is P388 Leukemia resistant to Adriamycin; NSC 123127, Developed at Scr 08 (intraperitoneal) in CD2F1 (CDF1) mice

[1] abbreviates: dose: 25.0 mg/kg/injection, schedule: Q01DX005 (ip), vehicle: saline with Tween-80.
[2] abbreviates: dose: 50.0 mg/kg/injection, schedule: Q01DX005 (ip), vehicle: saline with Tween-80.

Here are results for 13 molecules from PubChem BioAssay AID322 (DTP/NCI, 2004).

Several values for one entry are separate records, joined by “and”; a condition that tells them apart may be missing. Equal values may be shown once. Inconclusive results and toxic doses are left out.

With `O=C1C=C(N2CC2)C(=O)C(N2CC2)=C1N1CC1`, the T/C reads like this: (dose: 0.02 mg/kg/injection, schedule: Q01DX005 (ip), vehicle: saline) 180 % of control; (dose: 0.04 mg/kg/injection, schedule: Q01DX005 (ip), vehicle: saline) 176 % of control and 223 % of control; (dose: 0.08 mg/kg/injection, schedule: Q01DX005 (ip), vehicle: saline) 240 % of control and 294 % of control; (dose: 0.16 mg/kg/injection, schedule: Q01DX005 (ip), vehicle: saline) 233 % of control and 294 % of control; (dose: 0.32 mg/kg/injection, schedule: Q01DX005 (ip), vehicle: saline) 87 % of control and 110 % of control.
On to `Nc1nc(F)nc2c1ncn2C1OC(COP(=O)(O)O)C(O)C1O` (centres undefined), for which the T/C (dose: 60.0 mg/kg/injection, schedule: Q01DX009 (ip), vehicle: saline) was 219 % of control and 239 % of control; the T/C (dose: 90.0 mg/kg/injection, schedule: Q01DX009 (ip), vehicle: saline) is 309 % of control and 429 % of control; the T/C (dose: 134.0 mg/kg/injection, schedule: Q01DX009 (ip), vehicle: saline) was 309 % of control and 445 % of control; the T/C (dose: 200.0 mg/kg/injection, schedule: Q01DX009 (ip), vehicle: saline) was 309 % of control and 394 % of control; the T/C (dose: 250.0 mg/kg/injection, schedule: Q01DX009 (ip), vehicle: saline) was 108 % of control.
For the molecule `O=[N+]([O-])c1ccc(N(CCO)CCO)c2c1no[n+]2[O-]`, the T/C (dose: 3.12 mg/kg/injection, schedule: Q01DX005 (ip), vehicle: saline with Tween-80) was 114 % of control and the T/C (dose: 6.25 mg/kg/injection, schedule: Q01DX005 (ip), vehicle: saline with Tween-80) is 124 % of control.
In the case of `N[C@@H](Cc1ccc(N(CCCl)CCCl)cc1)C(=O)O`, the T/C runs as follows: (dose: 0.5 mg/kg/injection, schedule: Q01DX005 (ip), vehicle: saline) 171 % of control and 202 % of control; (dose: 1.0 mg/kg/injection, schedule: Q01DX005 (ip), vehicle: saline) 200 % of control and 202 % of control; (dose: 1.62 mg/kg/injection, schedule: Q04DX003 (ip), vehicle: water) 207 % of control; (dose: 2.0 mg/kg/injection, schedule: Q01DX005 (ip), vehicle: saline) 202 % of control and 297 % of control; (dose: 2.7 mg/kg/injection, schedule: Q04DX003 (ip), vehicle: water) 215 % of control; (dose: 4.0 mg/kg/injection, schedule: Q01DX005 (ip), vehicle: saline) 202 % of control and 297 % of control. Moreover, the T/C (dose: 4.5 mg/kg/injection, schedule: Q04DX003 (ip), vehicle: water) was 290 % of control; the T/C (dose: 7.5 mg/kg/injection, schedule: Q04DX003 (ip), vehicle: water) was 109 % of control; the T/C (dose: 8.0 mg/kg/injection, schedule: Q01DX005 (ip), vehicle: saline) was 297 % of control; the T/C (dose: 12.5 mg/kg/injection, schedule: Q04DX003 (ip), vehicle: water) is 95 % of control.
As for `COc1cc(NS(C)(=O)=O)ccc1Nc1c2ccccc2nc2ccccc12`, the T/C runs as follows: (dose: 1.25 mg/kg/injection, schedule: Q04DX003 (ip), vehicle: other) 102 % of control; (dose: 2.5 mg/kg/injection, schedule: Q04DX003 (ip), vehicle: other) 109 % of control; (dose: 2.59 mg/kg/injection, schedule: Q04DX003 (ip), vehicle: other) 107 % of control; (dose: 4.32 mg/kg/injection, schedule: Q04DX003 (ip), vehicle: other) 107 % of control; (dose: 5.0 mg/kg/injection, schedule: Q04DX003 (ip), vehicle: other) 109 % of control; (dose: 7.2 mg/kg/injection, schedule: Q04DX003 (ip), vehicle: other) 104 % of control. For the same molecule, the T/C (dose: 10.0 mg/kg/injection, schedule: Q04DX003 (ip), vehicle: other) is 109 % of control; the T/C (dose: 12.0 mg/kg/injection, schedule: Q04DX003 (ip), vehicle: other) was 106 % of control; the T/C (dose: 20.0 mg/kg/injection, schedule: Q04DX003 (ip), vehicle: other) was 105 % of control and 113 % of control.
Consider `O=C(Oc1ccccc1)c1cc(O)c(O)c(O)c1`, for which the T/C by setting is: under setting [1], 102 % of control; under setting [2], 98 % of control; (dose: 100.0 mg/kg/injection, schedule: Q01DX005 (ip), vehicle: saline with Tween-80) 99 % of control; (dose: 200.0 mg/kg/injection, schedule: Q01DX005 (ip), vehicle: saline with Tween-80) 112 % of control.
With `COc1cc2c(c3c1c(=O)c1ccccc1n3C)C=CC(C)(C)O2`, the T/C is 115 % of control (dose: 12.5 mg/kg/injection, schedule: Q01DX005 (ip), vehicle: saline with Tween-80); 87 % of control under setting [1]; 90 % of control under setting [2].
`COc1cccc2c1C(CO)N1C(C#N)C3CC(C(=O)O)C(C1C2)N3C` (centres undefined): the T/C was 186 % of control (dose: 0.78 mg/kg/injection, schedule: Q01DX005 (ip), vehicle: suspension in saline); 280 % of control (dose: 1.57 mg/kg/injection, schedule: Q01DX005 (ip), vehicle: suspension in saline); 200 % of control (dose: 3.12 mg/kg/injection, schedule: Q01DX005 (ip), vehicle: saline); 224 % of control (dose: 3.13 mg/kg/injection, schedule: Q01DX005 (ip), vehicle: suspension in saline); 248 % of control (dose: 6.25 mg/kg/injection, schedule: Q01DX005 (ip), vehicle: saline); 271 % of control (dose: 6.25 mg/kg/injection, schedule: Q01DX005 (ip), vehicle: suspension in saline). The T/C (dose: 12.5 mg/kg/injection, schedule: Q01DX005 (ip), vehicle: saline) is 266 % of control; the T/C (dose: 12.5 mg/kg/injection, schedule: Q01DX005 (ip), vehicle: suspension in saline) was 214 % of control; the T/C (dose: 25.0 mg/kg/injection, schedule: Q01DX005 (ip), vehicle: saline) was 272 % of control; the T/C (dose: 25.0 mg/kg/injection, schedule: Q01DX005 (ip), vehicle: suspension in saline) was 252 % of control.
For `CN(C)CCN1C(=O)c2cccc3cc(N)cc(c23)C1=O`, the T/C was 109 % of control and 117 % of control (dose: 7.0 mg/kg/injection, schedule: Q01DX009 (ip), vehicle: saline with Tween-80); 116 % of control (dose: 11.0 mg/kg/injection, schedule: Q01DX009 (ip), vehicle: saline with Tween-80); 106 % of control and 113 % of control (dose: 16.0 mg/kg/injection, schedule: Q01DX009 (ip), vehicle: saline with Tween-80); 112 % of control and 116 % of control (dose: 24.0 mg/kg/injection, schedule: Q01DX009 (ip), vehicle: saline with Tween-80).
Consider `COc1nc(C(Cl)(Cl)Cl)c(Cl)c(OC)c1Cl`, for which the T/C is 114 % of control (dose: 50.0 mg/kg/injection, schedule: Q01DX005 (ip), vehicle: Klucel (hydroxypropylcellulose) (HPC)) and 124 % of control (dose: 90.0 mg/kg/injection, schedule: Q01DX005 (ip), vehicle: Klucel (hydroxypropylcellulose) (HPC)).
On to `CSC1SCC2C(=O)N(C)C(C(C)C)C(=O)OCC(NC(=O)c3cnc4ccccc4n3)C(=O)NC(C)C(=O)N(C)C1C(=O)N(C)C(C(C)C)C(=O)OCC(NC(=O)c1cnc3ccccc3n1)C(=O)NC(C)C(=O)N2C` (centres undefined), for which the T/C was 152 % of control (dose: 44.0 micrograms/kg/injection, schedule: Q01DX005 (ip), vehicle: saline); 151 % of control (dose: 100.0 micrograms/kg/injection, schedule: Q01DX005 (ip), vehicle: saline); 152 % of control (dose: 150.0 micrograms/kg/injection, schedule: Q01DX005 (ip), vehicle: saline).
Take `c1ccc(OCC2CO2)c(OCC2CO2)c1` (centres undefined): the T/C was 171 % of control (dose: 60.0 mg/kg/injection, schedule: Q01DX005 (ip), vehicle: saline with Tween-80); 164 % of control and 167 % of control (dose: 120.0 mg/kg/injection, schedule: Q01DX005 (ip), vehicle: saline with Tween-80); 252 % of control (dose: 240.0 mg/kg/injection, schedule: Q01DX005 (ip), vehicle: saline with Tween-80).
In the case of `CN1CCN(c2ccc3nc(-c4ccc5nc(-c6ccc(O)cc6)[nH]c5c4)[nH]c3c2)CC1`, the T/C (dose: 44.0 mg/kg/injection, schedule: Q01DX009 (ip), vehicle: saline) was 118 % of control; the T/C (dose: 67.0 mg/kg/injection, schedule: Q01DX009 (ip), vehicle: saline) was 109 % of control; the T/C (dose: 100.0 mg/kg/injection, schedule: Q01DX009 (ip), vehicle: saline) is 105 % of control; the T/C (dose: 150.0 mg/kg/injection, schedule: Q01DX009 (ip), vehicle: saline) was 103 % of control.
